Data: publication PMC8000041, “New Insights into the Metabolism of the Flavanones Eriocitrin and Hesperidin: A Comparative Human Pharmacokinetic Study” (Antioxidants, 2021)
Like-named read-outs stand apart in the source and are kept apart here.

Key:
[1] = Urinary excretion of flavanone-derived metabolites after single intake of lemon or orange extract (UPLC-ESI-QTOF-MS); assay type: in vivo, human; conditions: for Urinary excretion F1: urine fraction 0-4 h; for Urinary excretion F1 / Urinary excretion Total F / Urinary excretion F2 / Urinary excretion F3 / Urinary excretion F4: mean ± SD; for Urinary excretion Total F: sum of fractions F1-F4 (24 h); for Urinary excretion F2: urine fraction 4-8 h; for Urinary excretion F3: urine fraction 8-10 h; for Urinary excretion F4: urine fraction 10-24 h; for Occurrence Urine LE (number of volunteers in whom the metabolite was detected): after consuming lemon extract; for Occurrence Urine LE (number of volunteers in whom the metabolite was detected) / Occurrence Urine OE (number of volunteers in whom the metabolite was detected): n = 16 volunteers; for Occurrence Urine OE (number of volunteers in whom the metabolite was detected): after consuming orange extract
Source text: Secondary endpoints involved the evaluation of post-prandial changes in several biomarkers dealing with metabolism, inflammation, and oxidative stress after a high-fat-high-sugars meal. The design was a randomized pharmacokinetic, double-blind, crossover, single-dose trial consisted of 2 test-phases. The volunteers were randomly allocated into two groups using a computerized random number list. Each group consumed one of the citrus extracts by following a test-phase that lasted for 1 day for blood sampling and urine collection, a 2-week washout period between each test phase, and crossover before consuming the other extract. The volunteers were instructed to avoid the consumption of flavanone-containing products, from a list provided by the researchers, for 1 week before the study and during the wash-out phase (citrus fruit juices, tomatoes, tomato-based sauces (like ‘ketchup’), peppers, almonds, etc.). […] The 3 capsules provided a total of 1.95 g orange extract, containing 260 mg hesperidin, and 3.1 g lemon extract, containing 260 mg eriocitrin. […] Untreated urine samples were aliquoted and frozen at −80 °C for up to 4 weeks until analyses, avoiding freeze-thaw cycles to avoid metabolites’ deconjugation. Moreover, three measurements of blood pressure and heart rate were taken before each time-point of blood withdrawal. […] A previously validated method for analyzing phenolic metabolites in biological samples, including flavanone-derived metabolites, was used. […] After centrifugation at 14,000× g for 10 min at 4 °C, the supernatant was evaporated in a speed vacuum concentrator. Finally, samples were re-suspended in 100 µL of methanol, filtered through a 0.22 µm cellulose filters before analysis by UPLC- ESI-QTOF-MS. […] A targeted screening strategy was applied to identify metabolites that could be present after consuming the citrus extracts. Twenty-eight possible compounds were browsed in all the samples. The list of compounds included the polyphenols present in the extracts, with particular focus on the flavanone rutinosides hesperidin and eriocitrin, their respective aglycones hesperetin, and eriodictyol, as well as their derived phase-II conjugates (glucuronides, sulfates, sulfoglucuronides, etc.). The exact mass of each proposed compound was extracted using an extraction window of 0.01 m/z. The metabolites hesperetin 7-O-glucuronide, hesperetin 3′-O-glucuronide, hesperetin 3-O-sulfate, naringenin 4′-O-glucuronide, and naringenin 7′-O-glucuronide were quantified with their corresponding standards. […] The parent phenolic compounds were quantified with their corresponding standards. In the case of some relevant conjugated metabolites, which standards were not available (eriodictyol and homoeriodictyol conjugates), their quantification was achieved by using relative response factors (RRFs) as previously described. Briefly, RRFs are useful to check the different responses of metabolites in the mass spectrometer vs. their UV signal. While the ionization response of free vs. conjugated forms is usually very different, their UV signal response is quite similar. To this purpose, we injected in a HPLC-DAD-ESI-Q (MS) the plasma samples (n = 5) with the highest concentrations of those conjugated metabolites. Concentrations were calculated by integrating the area from their corresponding UV peaks and compared with the UV peak area of a known concentration of their corresponding available parent compounds (eriodictyol and homoeriodictyol). The concentrations calculated were used to compare the MS response for each conjugated-aglycone pair.

[2] = Plasma metabolites and pharmacokinetics after single intake of lemon or orange extract (UPLC-ESI-QTOF-MS, non-compartmental analysis); assay type: in vivo, human; conditions: for Occurrence Plasma LE (number of volunteers in whom the metabolite was detected): after consuming lemon extract; for Occurrence Plasma LE (number of volunteers in whom the metabolite was detected) / Occurrence Plasma OE (number of volunteers in whom the metabolite was detected): n = 16 volunteers; for Occurrence Plasma OE (number of volunteers in whom the metabolite was detected): after consuming orange extract; for Tmax / Cmax / AUC(0-t): mean ± SD
Source text: Secondary endpoints involved the evaluation of post-prandial changes in several biomarkers dealing with metabolism, inflammation, and oxidative stress after a high-fat-high-sugars meal. The design was a randomized pharmacokinetic, double-blind, crossover, single-dose trial consisted of 2 test-phases. The volunteers were randomly allocated into two groups using a computerized random number list. Each group consumed one of the citrus extracts by following a test-phase that lasted for 1 day for blood sampling and urine collection, a 2-week washout period between each test phase, and crossover before consuming the other extract. The volunteers were instructed to avoid the consumption of flavanone-containing products, from a list provided by the researchers, for 1 week before the study and during the wash-out phase (citrus fruit juices, tomatoes, tomato-based sauces (like ‘ketchup’), peppers, almonds, etc.). […] The 3 capsules provided a total of 1.95 g orange extract, containing 260 mg hesperidin, and 3.1 g lemon extract, containing 260 mg eriocitrin. […] Plasma samples were obtained by centrifugation of peripheral venous blood at 14,000× g for 15 min at 4 °C and immediately frozen at −80 °C. Glucose, total cholesterol, HDL-cholesterol, LDL-cholesterol, triglycerides, insulin, homeostatic model assessment insulin resistance (HOMA-IR), gamma-glutamyl transferase (GGT), and alanine aminotransferase (ALT) were determined as previously reported. […] A previously validated method for analyzing phenolic metabolites in biological samples, including flavanone-derived metabolites, was used. […] After centrifugation at 14,000× g for 10 min at 4 °C, the supernatant was evaporated in a speed vacuum concentrator. Finally, samples were re-suspended in 100 µL of methanol, filtered through a 0.22 µm cellulose filters before analysis by UPLC- ESI-QTOF-MS. A targeted screening strategy was applied to identify metabolites that could be present after consuming the citrus extracts. Twenty-eight possible compounds were browsed in all the samples. The list of compounds included the polyphenols present in the extracts, with particular focus on the flavanone rutinosides hesperidin and eriocitrin, their respective aglycones hesperetin, and eriodictyol, as well as their derived phase-II conjugates (glucuronides, sulfates, sulfoglucuronides, etc.). The exact mass of each proposed compound was extracted using an extraction window of 0.01 m/z. The metabolites hesperetin 7-O-glucuronide, hesperetin 3′-O-glucuronide, hesperetin 3-O-sulfate, naringenin 4′-O-glucuronide, and naringenin 7′-O-glucuronide were quantified with their corresponding standards. […] The parent phenolic compounds were quantified with their corresponding standards. In the case of some relevant conjugated metabolites, which standards were not available (eriodictyol and homoeriodictyol conjugates), their quantification was achieved by using relative response factors (RRFs) as previously described. Briefly, RRFs are useful to check the different responses of metabolites in the mass spectrometer vs. their UV signal. While the ionization response of free vs. conjugated forms is usually very different, their UV signal response is quite similar. To this purpose, we injected in a HPLC-DAD-ESI-Q (MS) the plasma samples (n = 5) with the highest concentrations of those conjugated metabolites. Concentrations were calculated by integrating the area from their corresponding UV peaks and compared with the UV peak area of a known concentration of their corresponding available parent compounds (eriodictyol and homoeriodictyol). The concentrations calculated were used to compare the MS response for each conjugated-aglycone pair. Statistical analyses were carried out using the SPSS Software, version 23.0 (SPSS Inc., Chicago, IL, USA). Data are expressed as mean ± SD. The empirical distribution of data with the normality assumption was tested with the Shapiro-Wilk test. […]

[3] = lemon extract (3.1 g, 260 mg eriocitrin)
[4] = orange extract (1.95 g, 260 mg hesperidin)
[5] = human, oral, 3.1 g, after lemon extract
[6] = human, oral, 3.1 g, after lemon extract, read-out: AUC0-t
[7] = human, oral, 3.1 g, after lemon extract, read-out: Tmax

| Molecule | Urinary excretion F1 [1, 3] [µg/mg creatinine] | Urinary excretion Total F ([1]; lemon extract) [µg/mg creatinine] | Urinary excretion F2 ([1]; lemon extract) [µg/mg creatinine] | Urinary excretion F3 ([1]; lemon extract) [µg/mg creatinine] | Urinary excretion F4 ([1]; lemon extract) [µg/mg creatinine] | Urinary excretion F1 [1, 4] [µg/mg creatinine] | Urinary excretion Total F ([1]; orange extract) [µg/mg creatinine] | Urinary excretion F2 ([1]; orange extract) [µg/mg creatinine] | Urinary excretion F3 ([1]; orange extract) [µg/mg creatinine] | Urinary excretion F4 ([1]; orange extract) [µg/mg creatinine] | Occurrence Urine LE (number of volunteers in whom the metabolite was detected) [1] | Occurrence Urine OE (number of volunteers in whom the metabolite was detected) [1] | Occurrence Plasma LE (number of volunteers in whom the metabolite was detected) [2] | Occurrence Plasma OE (number of volunteers in whom the metabolite was detected) [2] | Tmax ([2]; after lemon extract) [h] | Cmax [2, 5] [nM] | AUC(0-t) [2, 6] [µM·h] | Tmax [2, 7] [h] | further results |
| --- | --- | --- | --- | --- | --- | --- | --- | --- | --- | --- | --- | --- | --- | --- | --- | --- | --- | --- | --- |
| COc1ccc(C2CC(=O)c3c(O)cc(OC4OC(C(=O)O)C(O)C(O)C4O)cc3O2)cc1O (stereo not shown) [M7, Hesperetin 7-O-glucuronide] | 1.2 ± 1.4 | 8.5 ± 9.2 | 4.0 ± 4.7 | 2.7 ± 2.5 | 0.6 ± 0.6 | 0.2 ± 0.6 | 5.6 ± 13.2 | 2.1 ± 5.7 | 2.2 ± 3.6 | 1.1 ± 3.3 | 16 | 16 | 16 | 16 | 6.3 ± 2.0 | 169 ± 109 | 0.703 ± 0.591 | 6.5 | Urinary excretion after lemon extract vs. orange extract ([1]; ratio lemon / orange extract intake): around 2 fold; Tmax ([2]; after orange (hesperidin) extract): 8.3 ± 1.6 h; Cmax ([2]; human, oral, 1.95 g, after orange (hesperidin) extract): 49.6 ± 51.7 nM; AUC(0-t) ([2]; human, oral, 1.95 g, after orange (hesperidin) extract, read-out: AUC0-t): 0.177 ± 0.249 µM·h; Tmax ([2]; human, oral, 1.95 g, after orange (hesperidin) extract, read-out: Tmax): 8.5 h |
| O=C1CC(c2ccc(O)c(OC3OC(C(=O)O)C(O)C(O)C3O)c2)Oc2cc(O)cc(O)c21 (stereo not shown) [M2, Eriodictyol glucuronide-2] | 6.4 ± 11.0 | 46.6 ± 53.6 | 18.0 ± 17.2 | 18.1 ± 19.7 | 4.2 ± 5.7 | 0.1 ± 0.1 | 2.5 ± 4.9 | 0.5 ± 0.8 | 0.5 ± 0.6 | 1.4 ± 3.4 | 16 | 10 | 16 | 7 | 5.9 ± 2.4 | 871 ± 868 | 3.22 ± 4.12 | 6 |  |
| COc1cc([C@@H]2CC(=O)c3c(O)cc(O)cc3O2)ccc1O [M16, Homoeriodictyol] |  |  |  |  |  |  |  |  |  |  | 12 | 1 | 15 | 1 |  |  |  |  |  |
| Homoeriodictyol sulfate [M10] | 3.8 ± 3.2 |  | 4.0 ± 5.5 | 3.6 ± 4.1 | 0.5 ± 0.4 |  |  |  |  |  | 16 | 0 | 16 | 3 | 6.5 ± 2.2 |  |  |  | AUC(0-t) ([2]; after lemon extract): 1.778 ± 2.257 µM·h; Cmax ([2]; after lemon extract): 479 ± 524 nM |
| Eriodictyol sulfoglucuronide [M9] |  |  |  |  |  |  |  |  |  |  | 5 | 0 | 15 | 0 |  |  |  |  |  |
| COc1ccc([C@@H]2CC(=O)c3c(O)cc(O)cc3O2)cc1O [M17, Hesperetin] |  |  |  |  |  |  |  |  |  |  | 5 | 8 | 8 | 3 |  |  |  |  |  |
